Assay [1] relates to control human bronchial epithelial (HBE) cells. In words: Gas-phase NO (gNO) accumulation above control HBE cultures in gas-tight liquid/gas-phase chamber. To be noted: for gas-phase level of NO: differentiated HBE, IFN-γ. Format: cell-based. On the procedure:
(§1) In preliminary studies, attempts were made to measure gNO release from well-differentiated cultures of HBE cells under the conditions described by Suresh et al. (21). Because some difficulties were encountered in obtaining a reproducible, gas-tight seal, both around the holes drilled in the plastic for the fittings and around the lid of the dish using parafilm, the procedure was modified in the following manner. First, 120 ml Teflon® jars (Savillex) were fitted with silicone O-rings to create a leak-proof seal. Two holes were drilled in the lid and fitted with stainless steel luer-lock adapters that were fastened tightly using stainless steel washers and nuts. The luer-lock adapters were fitted with two 3-way plastic stop-cocks to allow connections to be made to the Sievers 270B NO or other analyzers and room or zero air. Manufactured Teflon partition was inserted into the jar to hold the transwells containing cells and to separate the liquid compartment from the headspace.
(§2) For measurement of gNO production by HBE cultures, ALI media was added to each chamber. The apical surface of each culture was washed with 1 ml of PBS for 5 minutes at 37° C. to remove mucus and cell debris. Unless otherwise specified, 50 μl of PBS was added to the apical surface of the culture to provide a thin layer of ASL and allow cilia to beat freely. Three, 12 mm cultures were placed in each chamber, and the chambers were placed in a 37° C./5% CO2 incubator with the lids removed for 5 minutes to allow equilibration with incubator air. The lids were then replaced and tightened with both stop-cocks fully closed. After the appropriate incubation time, the chambers were removed from the incubator and connected to an NO analyzer. The stop-cocks were simultaneously opened to allow room air into the chamber while sample was being withdrawn into the analyzer for measurement. For these studies, NO was measured using a Sievers 280B nitric oxide analyzer with a flow rate of 40 ml/min. For the measurements of gNO production by nasal cultures the flow rate was increased to 500 ml/min. The analyzer was routinely calibrated using NO free air and nitric oxide standards, and zeroed before each experimental run. The level of NO was determined in room air and was usually <5 ppb. The analog output from the NO analyzer was directed into a MACLAB analog-digital converter and computer for data analyses and archiving. All NO measurements are reported as the peak concentration obtained during the sampling period, usually within the first 15 seconds.
(§3) Ciliated cells first become visible ˜14 days after establishment of an air-liquid interface, and the number of ciliated cells continues to increase with time so that by ˜31 days, the cultures typically consist of a multi-layered, pseudo-stratified, heavily ciliated epithelium, as illustrated in FIG. 1B. FIG. 1B is a micrograph 12 of differentiated cultures 14 consisting of a pseudo-stratified epithelium 16 stained with hematoxylin and eosin with abundant ciliated cells at the apical surface 18. To measure gas-phase NO (gNO) production, the apical surface of the cultures were washed, a small volume of PBS (50 ul) was added to wet the surface, and the cultures were incubated overnight (19-20 hours) in a gas-tight, NO inert, cell culture liquid/gas-phase chamber developed for the measurement of gNO (schematically shown in FIG. 2A).

Assay [2] deals with CF human bronchial epithelial (HBE) cells. The experiment in a line: Gas-phase NO (gNO) accumulation above CF HBE cultures in gas-tight liquid/gas-phase chamber. The assay is classed as cell-based. As for the experimental part: as §1, §2
as §3, with “2A). […]” for “2A).”

Assay [3] has as its system iNOS mRNA in control (Normal) HBE cells. The experiment in a line: RT-PCR of NOS isoform RNA in control HBE cultures. Format: cell-based, human. On the procedure: To examine the effect of an inflammatory cytokine on NO production, well-differentiated cultures of normal HBE cells were treated with different concentrations of interferon-gamma (IFN-γ), a potent inducer of iNOS (7-10). Total RNA was isolated and RT-PCR was used to qualitatively assess the level of the NOS isoforms. […] To examine the effect of IFN-γ on gNO, well-differentiated cultures (mean age 128 days) of control HBE cells were treated with interferon-gamma (IFN-γ) overnight. Treatment with 100 ng/ml of IFN-γ increased the level of accumulated NO>50-fold (see FIG. 5), averaging 576+/−200 ppb (n=22; 8 donors). The IFN-γ induced increase in NO was highly significant (p=6.5×10E-6). Increased levels of iNOS RNA and gNO were observed as early as 6 hours after treatment (data not shown), and levels of NO continued to increase for at least 24 hours.

For assay [4], the system named is iNOS mRNA in cystic fibrosis (CF) HBE cells. In words: RT-PCR of iNOS mRNA in CF HBE cultures. To be noted: differentiated CF HBE stimulated with IFN-γ, qualitative RT-PCR. Format: cell-based, human.
In the next assay the test system is HBE cells. In words: Total nitrate/nitrite (NOx) in basal media. Conditions: cultures treated with IFN-γ. The assay is classed as cell-based, human. On the procedure: Measurements of total nitrite/nitrate in apical and basolateral media samples were performed using the Parameter kit (R&D Systems, Minneapolis, Minn.) according to the manufacturer's instructions. Briefly, a 0.5 ml sample of media was obtained from the basolateral chamber at the conclusion of the experiment and frozen at −20° C. until analyzed. Each sample was assayed in duplicate and compared to a standard curve, which was prepared in the same ALI media used to culture the cells.
Nitric oxide present in biological fluids rapidly reacts with other molecules to produce a variety of products. In aqueous solutions, nitrite and nitrate are two of the major metabolites of NO reaction. To determine if the level of NO products in the basal media increased in a similar manner as the levels of gNO, the total amount of nitrate/nitrite (NOx) in a subset of experiments using the Griese reaction was measured. As expected, the level of nitrate/nitrite in the media was higher in cultures treated with IFN-γ than in untreated cultures, averaging 9.3+/−3.1 μM in treated cultures compared to 2.0+/−0.5 μM in untreated cultures (p=0.005; donors=7, 3). The level of NOx in the media increased proportionally to the level of gNO, with a correlation coefficient of 0.74 (y=2.33x+0.28; R^2=0.74), as shown in the chart 92 in FIG. 9. […]

[5] abbreviates: undifferentiated control HBE cultures, IFN-γ treatment.

“And” between values parts separate entries of the source, which are not always exact repeats. Equal values may be shown once. “Also recorded” adds a separate entry of the source.

Take `COC(=O)[C@@H](N)CCCNC(=N)N[N+](=O)[O-]` [L-NAME, reference compound]: the “inhibition of gNO production” value in assay [1] (control HBE cells, preliminary experiment FIG. 4A, after IFN-γ treatment) is recorded as “inhibited completely”.

On to interferon gamma [IFN-γ], for which the “NO concentration” value in assay [1] (6 hr incubation with 10 μL INF-γ (100 ng/ml) in HBSS medium, FIG. 4B) is “marked elevation”. Further, the “gas-phase level of NO” value in assay [1] (6 hours, 50 μL PBS) is 379+/−210 ppb; in assay [1] (6 hours, submerged with 420 μL PBS) it was 6.6+/−5.6 ppb; in assay [1] (20 hours, 50 μL PBS) it was 1642.5+/−31 ppb; in assay [1] (20 hours, submerged with 420 μL PBS) it was 26.5+/−6.4 ppb. Also, in assay [1] (differentiated control HBE cultures, 100 ng/ml IFN-γ), the “fold increase of accumulated gNO over baseline” value is > 50 fold and ~50 fold. The “level of accumulated gNO” value in assay [1] (differentiated control HBE cultures, 100 ng/ml IFN-γ overnight (19-20 hours), 50 μl PBS apical) is 576 ppb and 576+/−200 ppb and > 500 ppb. Moreover, in assay [1] (setting [5]), the “fold increase in gNO” value was around 2 fold. The “level of gNO” value in assay [1] (setting [5]) is 9.5+/−3.3 ppb and ~10 ppb; in assay [2] (differentiated CF HBE cultures, IFN-γ 100 ng/ml, 19-20 hours), 192 ppb and 192.3+/−68.9 ppb; in assay [2] (differentiated CF cells stimulated with IFN-γ, submerged with 420 μl PBS) it was 11+/−4.3 ppb; in assay [2] (differentiated CF cells stimulated with IFN-γ, submersion experiments, not submerged), 98+/−35 ppb; in assay [2] (undifferentiated CF cells after stimulation with IFN-γ), 15.6+/−6.8 ppb. For the same compound, in assay [1] (undifferentiated cultures, IFN-γ treatment), the “effect on gNO” value is on record as “no significant effect”. For the same compound, in assay [2] (differentiated cultures treated with IFN-γ), the “ratio of gNO, control cells versus CF cells after IFN-γ treatment” value is reported as 3 fold. Also, the “levels of nNOS and eNOS” value in assay [3] (control HBE treated with IFN-γ, RT-PCR (not shown)) is given as “relatively unchanged”. In assay [3] (differentiated control HBE, increasing concentrations of IFN-γ, qualitative RT-PCR), the “level of iNOS RNA / iNOS expression” value is “induced iNOS expression; also recorded: clear increase”. The iNOS expression result in assay [4] is “increase in iNOS expression”. Further, the “level of nitrate/nitrite in the media” value in the assay with HBE cells turned out to be 9.3 ± 3.1 µM.

(Values after patent publication US20140370541A1, “CELL CULTURE LIQUID/GAS-PHASE CHAMBER DEVICES AND RELATED METHODS, AND EXEMPLARY USE FOR MEASURING ACCUMULATION OF GAS-PHASE NITRIC OXIDE IN DIFFERENTIATED CULTURES OF NORMAL AND CYSTIC FIBROSIS AIRWAY EPITHELIAL CELLS” (UNIVERSITY OF NORTH CAROLINA, priority 2012, published 2014).)
